Data from patent US10023592B2, “Bromodomain inhibitors” (Celgene Quanticel Research, Inc., priority 2013, dated 2018).

Assays:
BRD4(BD1) = BRD4(BD1) (Homo sapiens (Human), UniProt O60885); assay: In vitro enzyme inhibition assay (BRD4 AlphaScreen); format: binding
Summary of the method: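 His-tagged BRD4 tested by AlphaScreen for binding of biotinylated H4K5/8/12/16-tetraacetyl peptide. After 20 min at room temperature, streptavidin donor and nickel chelate acceptor beads added (5 μg/mL final each). IC50 determined.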

[1] = tested on: Raji, human Burkitts lymphoma cells; assay: Cell-MTS proliferation assay, Raji; format: cell-based; details: Homo sapiens, 168 hr
Summary of the method: (§1)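 Seeded for ~90% confluence at 7 days (Raji 15,000, HL-60 5,000, NCI-H460 3,000 cells/well); compound added 24 h post-plating as 11-point dilution, 100 μM to 2.0 nM final.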

[2] = tested on: HL-60, human proleukemia cells; assay: Cell-MTS proliferation assay, HL-60; format: cell-based; details: Homo sapiens, 168 hr
Summary of the method: as §1

[3] = tested on: NCI-H460, human non-small cell lung cancer cells; assay: Cell-MTS proliferation assay, NCI-H460; format: cell-based; details: Homo sapiens, 168 hr
Summary of the method: as §1

[4] = in vitro enzyme inhibition assay
[5] = NCI-H460, Cell-MTS proliferation
[6] = Cell-MTS proliferation, Raji cells
[7] = Cell-MTS proliferation, HL-60 cells
[8] = Cell-MTS proliferation, NCI-H460 cells
[9] = Raji, Cell-MTS, class symbols A/B/C
[10] = HL-60, Cell-MTS, class symbols A/B/C
[11] = NCI-H460, Cell-MTS, class symbols A/B/C

| SMILES | IC50 (BRD4(BD1); [4]) | IC50 ([1]; Raji, Cell-MTS proliferation) | IC50 ([2]; HL-60, Cell-MTS proliferation) | IC50 [3, 5] | IC50 [1, 6] | IC50 [2, 7] | IC50 [3, 8] | IC50 (BRD4(BD1); class symbols A/B/C) | IC50 [1, 9] | IC50 [2, 10] | IC50 [3, 11] |
| --- | --- | --- | --- | --- | --- | --- | --- | --- | --- | --- | --- |
| CCS(=O)(=O)Nc1ncc(Oc2ccc(F)cc2F)c(-c2cc(C)c(=O)n(CC3CC3)c2)n1 [Example 249, N-[4-[1-(cyclopropylmethyl)-5-methyl-6-oxopyridin-3-yl]-5-(2,4-difluorophenoxy)pyrimidin-2-yl]ethanesulfonamide] | < 500 nM | < 500 nM | < 500 nM | > 5000 nM | – | – | – | – | – | – | – |
| CCS(=O)(=O)Nc1ccc(OC2CCC(F)(F)CC2)c(-c2cc(C)c(=O)n(C)c2)c1 [Example 449, N-[4-(4,4-difluorocyclohexyl)oxy-3-(1,5-dimethyl-6-oxopyridin-3-yl)phenyl] ethanesulfonamide] | < 500 nM | – | – | – | < 500 nM | < 500 nM | > 5000 nM | – | – | – | – |
| Cc1cc(-c2nc(CS(C)(=O)=O)ncc2OCC2CC2)cn(C)c1=O [Example 144, 5-[5-(cyclopropylmethoxy)-2-(methylsulfonylmethyl)pyrimidin-4-yl]-1,3-dimethylpyridin-2-one] | < 500 nM | > 5000 nM | 500 to 5000 nM | > 5000 nM | – | – | – | – | – | – | – |
| CCS(=O)(=O)Nc1cnc(OCC2CC2)c(-c2cn(C)c(=O)c3occc23)c1 [Example 257, N-[6-(cyclopropylmethoxy)-5-(6-methyl-7-oxofuro[2,3-c]pyridin-4-yl)pyridine-3-yl]ethanesulfonamide] | < 500 nM | < 500 nM | < 500 nM | > 5000 nM | – | – | – | – | – | – | – |
| CCS(=O)(=O)Nc1ncc(OCC2CC2)c(-c2cn(C)c(=O)c3c2CCCC3)n1 [Example 164, N-[5-(cyclopropylmethoxy)-4-(2-methyl-1-oxo-5,6,7,8-tetrahydroisoquinolin-4-yl)pyrimidin-2-yl]ethanesulfonamide] | < 500 nM | < 500 nM | 500 to 5000 nM | > 5000 nM | – | – | – | – | – | – | – |
| Cn1cc(-c2cc(S(C)(=O)=O)ccc2NCC2CC2)c2c(c1=O)CCCC2 [Example 223, 4-[2-(cyclopropylmethylamino)-5-methylsulfonylphenyl]-2-methyl-5,6,7,8-tetrahydroisoquinolin-1-one] | < 500 nM | 500 to 5000 nM | < 500 nM | > 5000 nM | – | – | – | – | – | – | – |
| CN(C)c1cc(-c2cc(S(C)(=O)=O)ccc2OCC2CC2)cn(C)c1=O [Example 474, 5-[2-(cyclopropylmethoxy)-5-methylsulfonylphenyl]-3-(dimethylamino)-1-methylpyridin-2-one] | < 500 nM | – | – | – | < 500 nM | < 500 nM | > 5000 nM | – | – | – | – |
| CCS(=O)(=O)Nc1ccc(Oc2ccc(F)cc2F)c(-c2cc(C)c(=O)n(CC3CC3)c2)c1 [Example 247, N-[3-[1-(cyclopropylmethyl)-5-methyl-6-oxopyridin-3-yl]-4-(2,4-difluoro-phenoxy)phenyl]ethanesulfonamide] | < 500 nM | < 500 nM | < 500 nM | > 5000 nM | – | – | – | – | – | – | – |
| CCS(=O)(=O)Nc1ncc(Oc2ccc(F)cc2F)c(-c2cn(C)c(=O)c3occc23)n1 [Example 263, N-[5-(2,4-difluorophenoxy)-4-(6-methyl-7-oxofuro[2,3-c]pyridin-4-yl)pyrimidin-2-yl]ethanesulfonamide] | < 500 nM | < 500 nM | < 500 nM | > 5000 nM | – | – | – | – | – | – | – |
| CCS(=O)(=O)c1ccc(OCC2CC2)c(-c2cn(C)c(=O)cc2C)c1 [Example 466, 5-[2-(cyclopropylmethoxy)-5-ethylsulfonylphenyl]-1,4-dimethylpyridin-2-one] | < 500 nM | – | – | – | < 500 nM | < 500 nM | > 5000 nM | – | – | – | – |
| Cn1cc(-c2cc(S(C)(=O)=O)ccc2O[C@H]2CC[C@@H](N)CC2)c2ccccc2c1=O [Example 183, 4-[2-(cis-4-aminocyclohexyl)oxy-5-methylsulfonylphenyl]-2-methylisoquinolin-1-one] | < 500 nM | > 5000 nM | 500 to 5000 nM | > 5000 nM | – | – | – | – | – | – | – |
| Cc1cc(-c2cc(NS(C)(=O)=O)ccc2Oc2ccc(F)cc2F)cn(C)c1=O [Example 102, N-[4-(2,4-difluorophenoxy)-3-(1,5-dimethyl-6-oxopyridin-3-yl)phenyl]methanesulfonamide] | – | – | – | – | – | – | – | < 500 nM | < 500 nM | < 500 nM | > 5000 nM |
| CCS(=O)(=O)Nc1ncc(OCC2CC2)c(-c2cn(C)c(=O)c3cc(F)ccc23)n1 [Example 160, N-[5-(cyclopropylmethoxy)-4-(7-fluoro-2-methyl-1-oxoisoquinolin-4-yl)pyrimidin-2-yl]ethanesulfonamide] | < 500 nM | < 500 nM | < 500 nM | > 5000 nM | – | – | – | – | – | – | – |
| Cn1cc(-c2nc(NS(C)(=O)=O)ncc2OCC2CC2)c2c(c1=O)CCCC2 [Example 163, N-[5-(cyclopropylmethoxy)-4-(2-methyl-1-oxo-5,6,7,8-tetrahydroisoquinolin-4-yl)pyrimidin-2-yl]methanesulfonamide] | < 500 nM | < 500 nM | 500 to 5000 nM | > 5000 nM | – | – | – | – | – | – | – |
| Cn1cc(-c2cc(S(C)(=O)=O)ccc2OCC2CC2)cc(F)c1=O [Example 119, 5-[2-(cyclopropylmethoxy)-5-methylsulfonylphenyl]-3-fluoro-1-methylpyridin-2-one] | – | – | – | – | – | – | – | 500 to 5000 nM | 500 to 5000 nM | 500 to 5000 nM | > 5000 nM |
| CCS(=O)(=O)Nc1ccc(Oc2ccc(F)cc2F)c(-c2cc(F)c(=O)n(C)c2)c1 [Example 122, N-[4-(2,4-difluorophenoxy)-3-(5-fluoro-1-methyl-6-oxopyridin-3-yl)phenyl]ethanesulfonamide] | – | – | – | – | – | – | – | < 500 nM | < 500 nM | < 500 nM | > 5000 nM |
| CCCCc1cnc(NS(=O)(=O)CC)nc1-c1cn(C)c(=O)c2ccccc12 [Example 309, N-[5-butyl-4-(2-methyl-1-oxoisoquinolin-4-yl)pyrimidin-2-yl] ethanesulfonamide] | < 500 nM | < 500 nM | < 500 nM | > 5000 nM | – | – | – | – | – | – | – |
| CCS(=O)(=O)c1ccc(NC2CCCC2)c(-c2cc(C)c(=O)n(C)c2)c1 [Example 416, 5-[2-(cyclopentylamino)-5-ethylsulfonylphenyl]-1,3-dimethylpyridin-2-one] | < 500 nM | – | – | – | < 500 nM | < 500 nM | > 5000 nM | – | – | – | – |
| CCS(=O)(=O)Nc1ncc(Oc2ccc(F)cc2F)c(-c2cn(C)c(=O)c3ccccc23)n1 [Example 170, N-[5-(2,4-difluorophenoxy)-4-(2-methyl-1-oxoisoquinolin-4-yl)pyrimidin-2-yl]ethanesulfonamide] | < 500 nM | < 500 nM | < 500 nM | > 5000 nM | – | – | – | – | – | – | – |
| CCS(=O)(=O)Cc1ccc(OCC(F)(F)F)c(-c2cn(C)c(=O)c3ccccc23)c1 [Example 487, 4-[5-(ethylsulfonylmethyl)-2-(2,2,2-trifluoroethoxy)phenyl]-2-methylisoquinolin-1-one] | < 500 nM | – | – | – | < 500 nM | < 500 nM | > 5000 nM | – | – | – | – |
| CCC(=O)Nc1ccc(S(C)(=O)=O)cc1-c1cn(C)c(=O)c2ccccc12 [Example 221, N-[2-(2-methyl-1-oxoisoquinolin-4-yl)-4-methylsulfonylphenyl]propanamide] | > 5000 nM | > 5000 nM | > 5000 nM | > 5000 nM | – | – | – | – | – | – | – |
| CN(C)c1cc(-c2cc(S(C)(=O)=O)ccc2NCC2CC2)cn(C)c1=O [Example 438, 5-[2-(cyclopropylmethylamino)-5-methylsulfonylphenyl]-3-(dimethylamino)-1-methylpyridin-2-one] | < 500 nM | – | – | – | < 500 nM | < 500 nM | > 5000 nM | – | – | – | – |
| Cn1cc(-c2nc(NS(C)(=O)=O)ncc2Oc2ccc(F)cc2F)c2c(c1=O)CCCC2 [Example 172, N-[5-(2,4-difluorophenoxy)-4-(2-methyl-1-oxo-5,6,7,8-tetrahydroisoquinolin-4-yl)pyrimidin-2-yl]methanesulfonamide] | < 500 nM | 500 to 5000 nM | 500 to 5000 nM | > 5000 nM | – | – | – | – | – | – | – |
| Cc1cc(-c2cc(S(C)(=O)=O)ccc2NCC2CC2)cn(C)c1=O [Example 462, 5-[2-(cyclopropylmethylamino)-5-methylsulfonylphenyl]-1,3-dimethylpyridin-2-one] | < 500 nM | – | – | – | < 500 nM | < 500 nM | > 5000 nM | – | – | – | – |
| Cn1cc(Oc2cc(-c3cc(S(C)(=O)=O)ccc3OCC3CC3)cn(C)c2=O)cn1 [Example 293, 5-[2-(cyclopropylmethoxy)-5-methylsulfonylphenyl]-1-methyl-3-(1-methylpyrazol-4-yl)oxypyridin-2-one] | < 500 nM | 500 to 5000 nM | 500 to 5000 nM | > 5000 nM | – | – | – | – | – | – | – |
| CCS(=O)(=O)Nc1cc(-c2cn(C)c(=O)c3ccc(-c4cnn(C)c4)cc23)c(OCC2CC2)cc1F [Example 209, N-[4-(cyclopropylmethoxy)-2-fluoro-5-[2-methyl-6-(1-methylpyrazol-4-yl)-1-oxoisoquinolin-4-yl]phenyl]ethanesulfonamide] | < 500 nM | < 500 nM | < 500 nM | > 5000 nM | – | – | – | – | – | – | – |
| Cn1cc(-c2cc(CS(C)(=O)=O)ccc2Oc2ccc(F)cc2F)ccc1=O [Example 470, 5-[2-(2,4-difluorophenoxy)-5-(methylsulfonylmethyl)phenyl]-1-methylpyridin-2-one] | < 500 nM | – | – | – | < 500 nM | < 500 nM | 500 to 5000 nM | – | – | – | – |
